Where a name gives a salt, the structure may show the parent alone.

The values below come from patent US7335771B2, “Quinacridone derivatives as labelling reagents for fluorescence detection of biological materials” (GE Healthcare UK Limited, priority 2001, dated 2008).

What all share (assay type): physicochemical
A short description of data set [1]: Fluorescence lifetime, time-correlated single photon counting (excitation 500 nm, detection 550 nm). Conditions: excited at 500 nm, detection at 550 nm. How it is done: FIG. 2 is a plot showing the fluorescence lifetimes of certain dyes according to the invention. Fluorescence lifetimes of a range of dyes were determined by a time-correlated single photon counting technique using an Edinburgh Instruments FL900 CDT Time-Resolved Fluorometer. Samples were excited at 500 nm using a hydrogen-filled flashlamp. Detection was at 550 nm.

A short description of data set [2]: Fluorescence of the dinitro dye in solvents. The conditions noted are these: in DMF, DMSO and methanol.
A short description of data set [3]: Fluorescence lifetimes of dye and its ovalbumin conjugate in PBS. The procedure: The fluorescence lifetimes of 6-{7,14-dioxo-2,9-disulpho-7,14-dihydro-12H-quino[2,3-b]acridin-5-yl}hexanoic acid and its conjugate with ovalbumin (Conjugate A) was determined in PBS.

On to `CCCCCCn1c2ccc(Br)cc2c(=O)c2cc3c(cc21)c(=O)c1cc(Br)ccc1n3CCCCCC` [2,9-Dibromo-5,12-di-n-hexylquinacridone, 2,9-dibromo-5,12-dihexylquinacridone], for which the Lifetime in data set [1] (solvent CH2Cl2/MeOH) is 16.9 nsec. Regarding `O=c1c2cc(S(=O)(=O)O)ccc2[nH]c2cc3c(=O)c4cc(S(=O)(=O)O)ccc4[nH]c3cc12` [2,9-Quinacridone disulphonic acid, Quinacridone-2,9-disulphonic acid, (di-potassium salt)], the Lifetime in data set [1] (solvent water) was 20.6 nsec. As for `CCCCCCn1c2ccccc2c(=O)c2cc3c(cc21)c(=O)c1cc(Br)ccc1n3CCCCCC` [2-Bromo-5,12-di-n-hexylquinacridone, 2-Bromo-5,12-dihexylquinacridone], the Lifetime in data set [1] (solvent CH2Cl2/MeOH) was 20.4 nsec.

As for `CCCCCCn1c2ccccc2c(=O)c2cc3c(cc21)c(=O)c1ccccc1n3CCCCCC` [5,12-Di-n-hexylquinacridone, 5,12-Dihexylquinacridone], the Lifetime in data set [1] (solvent CH2Cl2/MeOH) is reported as 26.5 nsec.

Turning to `CCOC(=O)CCCCCn1c2ccc(Cl)cc2c(=O)c2cc3c(cc21)c(=O)c1cc(Cl)ccc1n3CCCCCC(=O)OCC` [6-{2,9-Dichloro-12-(5-carboxypentyl)-7,14-dioxo-7,14-dihydro-12H-quino[2,3-b]acridin-5-yl}hexanoic acid, diethyl ester], the Lifetime in data set [1] (solvent MeOH) came to 22.3 nsec. The same measure, in the same setting: the result for `CCOC(=O)CCCCCn1c2ccc(F)cc2c(=O)c2cc3c(cc21)c(=O)c1cc(F)ccc1n3CCCCCC(=O)OCC` [6-{2,9-Difluoro-12-(5-carboxypentyl)-7,14-dioxo-7,14-dihydro-12H-quino[2,3-b]acridin-5-yl}hexanoic acid, diethyl ester] reads 21.4 nsec. Take `CCOC(=O)CCCCCn1c2ccc(OC)cc2c(=O)c2cc3c(cc21)c(=O)c1cc(OC)ccc1n3CCCCCC(=O)OCC` [6-{2,9-Dimethoxy-12-(5-carboxypentyl)-7,14-dioxo-7,14-dihydro-12H-quino[2,3-b]acridin-5-yl}hexanoic acid, diethyl ester]: the Lifetime in data set [1] (solvent EtOH) was found to be 14.0 nsec.

Regarding `CCOC(=O)CCCCCn1c2ccc([N+](=O)[O-])cc2c(=O)c2cc3c(cc21)c(=O)c1cc([N+](=O)[O-])ccc1n3CCCCCC(=O)OCC` [6-{2,9-Dinitro-12-(5-carboxypentyl)-7,14-dioxo-7,14-dihydro-12H-quino[2,3-b]acridin-5-yl}hexanoic acid, diethyl ester], the Fluorescence entry in data set [2] is “very weak or is non-fluorescent”. Moreover, the Lifetime in data set [1] (solvent CH2Cl2) was found to be 17.0 nsec. In data set [1] (solvent water), `CCOC(=O)CCCCCn1c2ccc(Br)cc2c(=O)c2cc3c(cc21)c(=O)c1cc(Br)ccc1n3CCCCCC(=O)OCC` [6-{2,9-dibromo-12-(5-carboxypentyl)-7,14-dioxo-7,14-dihydro-12H-quino[2,3-b]acridin-5-yl}hexanoic acid, diethyl ester] gave a Lifetime of 18.0 nsec. The compound `CCOC(=O)CCCCCn1c2ccc(C)cc2c(=O)c2cc3c(cc21)c(=O)c1cc(C)ccc1n3CCCCCC(=O)OCC` [6-{2,9-dimethyl-12-(5-carboxypentyl)-7,14-dioxo-7,14-dihydro-12H-quino[2,3-b]acridin-5-yl}hexanoic acid, diethyl ester] yielded a Lifetime in data set [1] (solvent MeOH) of 21.9 nsec.

In data set [1] (solvent water), `O=C(O)CCCCCn1c2ccc(S(=O)(=O)O)cc2c(=O)c2cc3[nH]c4ccc(S(=O)(=O)O)cc4c(=O)c3cc21` [6-{7,14-Dioxo-2,9-disulpho-7,14-dihydro-12H-quino[2,3-b]acridin-5-yl}hexanoic acid] had a Lifetime of 20.1 nsec. The “Lifetime (nsec)” value in data set [3] worked out at 20.1 nsec. In data set [1] (solvent water), `CCn1c2ccc(S(=O)(=O)O)cc2c(=O)c2cc3c(cc21)c(=O)c1cc(S(=O)(=O)O)ccc1n3CCCCCC(=O)O` [6-{12-ethyl-7,14-dioxo-2,9-disulpho-7,14-dihydro-12H-quino[2,3-b]acridin-5-yl}hexanoic acid] gave a Lifetime of 22.7 nsec. Same read-out and setting: the result for `O=c1c2cc3[nH]c4c(S(=O)(=O)O)cc(S(=O)(=O)O)cc4c(=O)c3cc2[nH]c2c(S(=O)(=O)O)cc(S(=O)(=O)O)cc12` [Quinacridone-2,4,9,11-tetrasulphonic acid (tetra-potassium salt)] reads 22.1 nsec. On to `O=c1c2ccccc2[nH]c2cc3c(=O)c4ccccc4[nH]c3cc12` [Quinacridone], for which the Lifetime in data set [1] (solvent DMSO) was 22 nsec.
